Test system: C57BL/6 male mice
Test: In vivo delivery study of lipid nucleic acid mixture (oral gavage, RT-qPCR of PGY-sRNA-26 in tissues)
Design: species or system mouse
Conditions: for overall delivery efficacy: delivering nucleic acids into each tissue and blood tested: 100 μg lipid:10 nmol PGY-sRNA-26, all tissues and blood tested; for oral delivery of single-stranded sRNA nucleic acids into mouse blood / oral delivery of single-stranded sRNA nucleic acids into mouse brain tissue / oral delivery of single-stranded sRNA nucleic acids into mouse femur / oral delivery of single-stranded sRNA nucleic acids into mouse heart tissue / oral delivery of single-stranded sRNA nucleic acids into mouse intestinal tissue / oral delivery of single-stranded sRNA nucleic acids into mouse kidney tissue / oral delivery of single-stranded sRNA nucleic acids into mouse liver tissue / oral delivery of single-stranded sRNA nucleic acids into mouse lung tissue / oral delivery of single-stranded sRNA nucleic acids into mouse spleen tissue / oral delivery of single-stranded sRNA nucleic acids into mouse stomach tissue: 100 μg lipid:10 nmol PGY-sRNA-26, sampled after 12 hours; for oral delivery of single-stranded sRNA nucleic acids into mouse heart tissue: vs free uptake group; for oral delivery of single-stranded sRNA nucleic acids into mouse intestinal tissue: intestine
Experimental: 10 nmol of small RNA (as shown in Table 2) was dissolved in 400 μl of DEPC-treated water in a glass tube, 10 μl of the corresponding lipid stock solution was added such that the lipid mass in the system was 100 μg. The mixture was mixed thoroughly, heated in a 90° C. water bath for 15 minutes, and then cooled naturally to obtain the lipid nucleic acid mixture of lipid and small RNA.
C57BL/6 male mice, approximately 6 weeks old, weighing […], were obtained from Beijing Vital River Laboratory Animal Technology Co., Ltd. The mice were housed in the SPF-grade animal facility at the Animal Center of the Institute of Basic Medical Sciences, Chinese Academy of Medical Sciences. The mice were fasted for 12 hours before gavage administration.
The lipid nucleic acid mixture was prepared following the method described in Example 2. The resultant lipid nucleic acid mixture was orally administered to each mouse at a dose of 100 μg lipid:10 nmol single-stranded 3-methylated small RNA PGY-sRNA-26.
• 1) Blank group (n=4): mice were administered with 500 μl saline by gavage, this group served as a blank control; • 2) Free uptake group (n=4): mice were directly administered with small RNA PGY-sRNA-26 solution (10 nmol/mouse, 500 l) by gavage, this group served as a negative control; • 3) Lipid-treated group (n=4): mice were administered with 500 μl lipid nucleic acid mixture prepared in step 2 by gavage.
After 12 hours of gavage administration, 500 μl blood from the eyeball of each mouse was sampled, added to 1.5 ml Trizol Reagent LS (purchased from Invitrogen), thoroughly mixed for lysis. 3 ml of Trizol Reagent LSwas added to tissue samples and homogenized for complete lysis, wherein the sampled tissues include heart, liver, spleen, lung, kidney, stomach, intestine, brain, blood, femur, pancreas. RNAwas extracted from 1 ml of the blood or the tissue lysate following the steps below: • Centrifuge at 4° C., 12,000 rpm for 5 min, discard the precipitate, transfer Trizol to a new centrifuge tube; • Add chloroform at 200 μL chloroform/mL Trizol, shake well, stand at room temperature for 5 min; • Centrifuge at 4° C., 12,000 rpm for 15 min; • Take the upper aqueous phase to another centrifuge tube, add isopropanol at 0.4 mL isopropanol/mL Trizol, mix well, and stand at low temperature for 10-20 min; • Centrifuge at 4° C., 12,000 rpm for 15 min, discard the supernatant, RNA precipitated at the bottom of the tube; • Add 1 mL of 75% ethanol, gently shake the centrifuge tube, suspend the precipitate; • Centrifuge at 4° C., 12,000 rpm for 15 min, discard the supernatant, add 1 mL of 75% ethanol, gently shake the centrifuge tube, suspend the precipitate; • Centrifuge at 4° C., 12,000 rpm for 15 min, discard the supernatant, air-dry at room temperature, dissolve RNA samples in 50 μL RNase-free H2O, measure OD value to quantify RNA concentration. 3.3 Reverse Transcription of sRNA to cDNA:
sRNA was reverse transcribed to cDNA using the High-Capacity cDNA Reverse Transcription Kit (Applied Biosystems, cat. no. 4368813) by stem-loop method (see, e.g., “Real-time quantification of microRNAs by stem-loop RT-PCR, Nucleic Acids Res. 2005 Nov. 27; 33(20):e179”, incorporated herein by reference). The reverse transcription system is as follows: Template RNA (200 ng/μL) 10 μL, 10×RT Buffer 2.0 μL, 25×dNTP Mix (100 mM) 0.8 μL, U6 RT stem-loop primer (10 μM) 2.0 μL, PGY-sRNA-26 RT stem-loop primer (10 μM) 2.0 μL, MultiScribe™ Reverse Transcriptase (50 U/μL) 1.0 μL, RNAse Inhibitor (40 U/μL) 1.0 μL, nuclease-free H2O 1.2 μL. After transient centrifugation, the reverse transcription system was placed in a PCR machine with the following reaction conditions: (1) 25° C., 10 min; (2) 37° C., 120 min; (3) 85° C., 5 min; (4) 4° C., stop reaction. After the reaction, add 20 μL RNAse-free ddH2O, adjust the final volume to 40 μL. […]

| Structure (SMILES) | overall delivery efficacy: delivering nucleic acids into each tissue and blood tested | oral delivery of single-stranded sRNA nucleic acids into mouse blood | oral delivery of single-stranded sRNA nucleic acids into mouse brain tissue | oral delivery of single-stranded sRNA nucleic acids into mouse femur | oral delivery of single-stranded sRNA nucleic acids into mouse heart tissue | oral delivery of single-stranded sRNA nucleic acids into mouse intestinal tissue | oral delivery of single-stranded sRNA nucleic acids into mouse kidney tissue | oral delivery of single-stranded sRNA nucleic acids into mouse liver tissue | oral delivery of single-stranded sRNA nucleic acids into mouse lung tissue | oral delivery of single-stranded sRNA nucleic acids into mouse spleen tissue | oral delivery of single-stranded sRNA nucleic acids into mouse stomach tissue |
| --- | --- | --- | --- | --- | --- | --- | --- | --- | --- | --- | --- |
| O=C(O)C[C@H]1CCC(=O)[C@@H]1C/C=C\CCO [Lipid 543] | best delivery efficacy | can effectively orally deliver | can effectively orally deliver | can effectively orally deliver | can effectively orally deliver | can effectively orally deliver | can effectively orally deliver | can effectively orally deliver | can effectively orally deliver | can effectively orally deliver | can effectively orally deliver |
| O=C(O)CCCCCCCCCCCCCC(=O)O [Lipid 572, pentadecanedioic acid] |  | can effectively orally deliver | can effectively orally deliver | can effectively orally deliver | can effectively orally deliver | can effectively orally deliver | can effectively orally deliver | can effectively orally deliver |  | can effectively orally deliver | can effectively orally deliver |
| CCCCCCCCCC(N)=O [Lipid 573, Decanamide] |  | can effectively orally deliver | can effectively orally deliver | can effectively orally deliver | can effectively orally deliver | can effectively orally deliver |  | can effectively orally deliver |  | can effectively orally deliver | can effectively orally deliver |
| CCCCCCCCCCCCCCC=O [Lipid 574] |  | can effectively orally deliver | can effectively orally deliver | can effectively orally deliver | can effectively orally deliver |  | can effectively orally deliver | can effectively orally deliver |  | can effectively orally deliver | can effectively orally deliver |
| CCCCCCCCCCCCCCCC(=O)NCCO [Lipid 578, N-(2-hydroxyethyl)hexadecanamide] |  | can effectively orally deliver | can effectively orally deliver | can effectively orally deliver | can effectively orally deliver |  | can effectively orally deliver | can effectively orally deliver | can effectively orally deliver | can effectively orally deliver | can effectively orally deliver |
| CCCCCCCCCCCCCC(C)=O [Lipid 593, pentadecan-2-one] | best delivery efficacy | can effectively orally deliver | can effectively orally deliver | can effectively orally deliver | can effectively orally deliver | can effectively orally deliver | can effectively orally deliver | can effectively orally deliver | can effectively orally deliver | can effectively orally deliver | can effectively orally deliver |
| CCCCCCCCCCCCCC=O [Lipid 594] | best delivery efficacy | can effectively orally deliver | can effectively orally deliver | can effectively orally deliver | can effectively orally deliver | can effectively orally deliver | can effectively orally deliver | can effectively orally deliver | can effectively orally deliver | can effectively orally deliver | can effectively orally deliver |

Reference: patent publication US20250073255A1, “USE OF FA-TYPE LIPID COMPOUNDS IN PREPARATION OF NUCLEIC ACID DELIVERY REAGENT AND RELATED PRODUCT” (BEIJING BAISHIKANG PHARMACEUTICAL TECHNOLOGY (BSJPHARMA) …, priority 2021, published 2025)
